{
  "source": "patent US12024507B2",
  "about": "“Compounds as GLP-1R agonists” (Terns Pharmaceuticals, Inc., priority 2021, dated 2024)",
  "target": "T1, human GLP-1R receptor (Homo sapiens, UniProt P43220)",
  "T1 construct": "expressed in transfected cells",
  "T1 sequence (P43220 24-463)": "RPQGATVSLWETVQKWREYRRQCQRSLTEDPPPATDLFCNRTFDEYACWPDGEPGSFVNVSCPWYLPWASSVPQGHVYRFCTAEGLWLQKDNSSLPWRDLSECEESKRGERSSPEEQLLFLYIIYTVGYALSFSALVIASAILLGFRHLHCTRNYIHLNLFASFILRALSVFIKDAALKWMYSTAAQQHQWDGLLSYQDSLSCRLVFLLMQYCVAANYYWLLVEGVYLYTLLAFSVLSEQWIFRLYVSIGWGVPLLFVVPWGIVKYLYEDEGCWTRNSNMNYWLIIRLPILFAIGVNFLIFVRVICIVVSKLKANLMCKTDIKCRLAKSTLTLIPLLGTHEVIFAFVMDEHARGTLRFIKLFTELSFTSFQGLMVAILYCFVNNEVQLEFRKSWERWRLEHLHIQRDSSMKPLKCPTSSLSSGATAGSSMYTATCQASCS",
  "test": "GLP-1R cell assay (cAMP TR-FRET, low expression CHO-K1_hGLP-1Rlow_clone10 cell line)",
  "assay_type": "cell-based",
  "conditions": "CHO-K1_hGLP-1Rlow_clone10 cells, relative to control GLP-1 peptide agonist, read-out: GLP1 EC50",
  "method": "Stable cell lines expressing high and low GLP-1R surface expression were generated in CHO-K1 cells transfected (Fugene 6) with a puromycin selectable DNA plasmid encoding human GLP-1R receptor (accession number: NM_002062.5) under control of an EF1A promoter. Transfected cells were seeded into 24-well plates (9,000 cells/well) containing complete medium and incubated in a humidified incubator at 37° C. with 5% carbon dioxide. After overnight incubation, medium was replaced with complete medium supplemented with puromycin (6 μg/mL) and refreshed every 2-3 days to select for stably transfected cells. Individual pools of selected cells were expanded prior to analysis for responsiveness to GLP-1 control peptide using a TR-FRET assay to detect cAMP (LANCE Ultra cAMP Assay, Perkin Elmer). Briefly, cells were collected in Versene solution, plated in 384-well plates (1,000 cells/well) and combined with serially diluted GLP-1R control peptide (10 nL) using an acoustic dispenser (ECHO). Plates were incubated for 30 minutes at 25° C. prior to the addition of EU-cAMP tracer (5 μL) and Ulight-anti-cAMP (5 μL) reagents to each well, followed by 15 minutes incubation at 25° C. TR-FRET signal was detected using an EnVision Multimode Plate Reader (excitation=320 nm; emission=615 and 655 nm). Dose-response curves were used to generate EC50 values as a measure of responsiveness to the GLP-1R control peptide. Selected cell lines were monitored for responsiveness over multiple passages to ensure stability. […] Briefly, GLP-1R expression was analyzed by flow cytometry using a fluorescein-labeled Exendin-4 peptide fluorescent probe (FLEX). Cells were harvested in Versene solution and washed 3-times with PBS+0.5% BSA before incubation with FLEX reagent (10 μM) for 2 hours at room temperature. After incubation, cells were washed 3-times in PBS+0.5% BSA before final resuspension in PBS prior to analysis by flow cytometry to measure FLEX mean fluorescence intensity (MFI) as a measure of GLP-1R expression on the cell surface.\nFor compound testing in the CHO-K1_hGLP-1Rlow_clone10 cell line, cells were seeded in 384-well plates (1,000 cells/well). Test compounds were serially diluted in DMSO (10-point, 3-fold dilution), added to wells using an ECHO dispenser (10 nL/well) and plates were centrifuged for 1 min and agitated for 2 min at room temperature prior to 30-minute incubation at 25° C. After incubation, Eu-cAMP (5 μL) and Ulight-anti-cAMP (5 μL) reagents were added to each well, followed by centrifugation for 1 minute, agitation for 2 minutes at room temperature, and final incubation of the plates at 25° C. for 15 minutes. Plates were read using an EnVision microplate reader (excitation=320 nm; emission=615 and 655 nm). Dose-response curves were generated from duplicate wells based on percent activation calculated relative to a control GLP-1 peptide agonist that was run in parallel. EC50 values were determined by fitting percent activation as a function of compound concentration using the Hill equation (XLfit).\nThe compounds tested were compound samples prepared according to the General Procedures described in the Examples section.",
  "data": [
    {"compound": "N#Cc1ccc(COc2cccc(C3CCN(Cc4nc5ccc(-c6nnn[nH]6)cc5n4C[C@@H]4CCO4)CC3)n2)c(F)c1", "note": "[Compound 8]", "values": [
      {"measurement": "EC50", "value": 15, "unit": "nM"}
    ]},
    {"compound": "N#Cc1ccc(COc2cccc(C3CCN(Cc4nc5ccc(-c6nc(=O)[nH]o6)cc5n4Cc4cncs4)CC3)n2)c(F)c1", "note": "[Compound 13, 3-fluoro-4-(((6-(1-((6-(3-oxo-2,3-dihydro-1,2,4-oxadiazol-5-yl)-1-(thiazol-5-ylmethyl)-1H-benzo[d]imidazol-2-yl)methyl)piperidin-4-yl)pyridin-2-yl)oxy)methyl)benzonitrile]", "values": [
      {"measurement": "EC50", "value": 25.2, "unit": "nM"}
    ]}
  ]
}
